Measured values: PMC4558116, “Inhibition of COP9-signalosome (CSN) deneddylating activity and tumor growth of diffuse large B-cell lymphomas by doxycycline” (Oncotarget, 2015)

Molecular target: T1, CSN5 (COP-9 signalosome deneddylase subunit) (Homo sapiens, UniProt Q92905)
T1 construct: gene COPS5; purified CSN complex; with COP9 signalosome (CSN) complex; substrate Nedd8-conjugated SCF^Skp2 (Cullin-1)
Experiment: fluorescence polarization deneddylation assay with purified CSN and Oregon Green-Nedd8-SCF^Skp2
Format: biochemical

T1 sequence (Q92905 2-334): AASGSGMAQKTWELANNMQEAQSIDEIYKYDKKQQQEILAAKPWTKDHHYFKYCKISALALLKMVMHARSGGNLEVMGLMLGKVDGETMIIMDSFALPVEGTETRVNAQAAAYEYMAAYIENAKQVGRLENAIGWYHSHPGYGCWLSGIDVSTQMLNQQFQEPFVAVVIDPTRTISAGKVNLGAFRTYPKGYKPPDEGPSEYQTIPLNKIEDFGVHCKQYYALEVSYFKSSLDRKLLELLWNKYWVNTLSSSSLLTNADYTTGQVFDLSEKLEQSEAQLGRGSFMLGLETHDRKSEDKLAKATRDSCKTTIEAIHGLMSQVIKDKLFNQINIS

- IC50: ~110 µM
Compound: C[C@H]1c2cccc(O)c2C(=O)C2=C(O)[C@]3(O)C(=O)C(C(N)=O)=C(O)[C@@H](N(C)C)[C@@H]3[C@@H](O)[C@@H]21 [doxycycline]
